The text below walks through data of paper PMC8567874, “Metronomic delivery of orally available pemetrexed-incorporated colloidal dispersions for boosting tumor-specific immunity” (Drug Delivery, 2021).

The nature of this data set: In situ single-pass rat intestinal perfusion. The note with it: other: in situ single-pass intestinal perfusion, rat intestine, n = 4, read-out: Effective permeability (Peff). It counts as in vivo. The procedure:
The in situ single-pass intestinal effective permeabilities (Peff) of PMX, PMX/DL(1:1), PMX/DL(1:2), PMX/DL(1:1)-CD, and PMX/DL(1:2)-CD were investigated in rats. The rats were fasted overnight for 12–16 h with free access to water before the experiment and then anesthetized by intramuscular injection of tiletamine·HCl–zolazepam mixture (1:1 [w/w]; 40 mg/kg). With the animal in the supine position, the abdominal cavity was opened using a midline longitudinal incision, and the intestine (duodenum, jejunum, and ileum) was exposed and subsequently intubated at the two ends with a polypropylene perfusion tube connected to a peristaltic pump (Harvard Apparatus, Holliston, MA, USA). After covering the entire excised area with a cotton pad soaked with warm normal saline, the cannulated intestinal segments were flushed with blank perfusion buffer at 37 °C for 30 min, at a constant flow rate of 0.5 mL/min, to remove residual intestinal contents. Then, drug solutions of PMX, PMX/DL(1:1), PMX/DL(1:2), PMX/DL(1:1)-CD, or PMX/DL(1:2)-CD (equivalent to 100 μg/mL PMX) were perfused through the intestinal lumen at 37 °C and a constant flow rate of 0.2 mL/min. After allowing 30 min to achieve a steady-state, outlet perfusate was collected every 15 min for 120 min. In addition, to assess the reliability of the perfusion study, 100 μg/mL fluorescein diluted in perfusion buffer was perfused separately under the same conditions and the collected samples were analyzed at excitation/emission wavelengths of 494/512 nm using a microplate reader (PerkinElmer multimode plate reader; PerkinElmer, Waltham, MA, USA) as a low-permeability marker. During the experiment, all animals were kept on heated pads under a heat lamp to maintain a normal body temperature. At the end of the experiment, the lengths and radii of the cannulated intestinal segments were measured, taking care to avoid stretching them. The collected samples were then filtered using 0.45-μm PVDF filters and stored at −20 °C before analyses. The outlet concentration of PMX in the perfusate was analyzed by HPLC as described above. In addition, the errors caused by rat intestinal water absorption and secretion during perfusion were corrected by the net water flux (ratio of the […] perfusate flows, Qout/Qin) and the corrected drug concentration in perfusate for each formulation was calculated based on the following equation (i.e. gravimetric method): Cout,corr = Cout × (Qout/Qin), where Cout,corr is the corrected outlet PMX concentration (µg/mL), Cout is the PMX outlet concentration (µg/mL), Qin (mL/min) is the flow rate entering the intestine, and Qout (mL/min) is the measured perfusate exit flow (net weight/15 min, assumed density of 1.0 g/mL) for the specified time interval. After correction, the Peff was calculated using the equation: Peff = Qin/A × ln(Cout,corr/Cin), where A is the intestinal area available for absorption (2πrl) based on its length (l) and radius (r).

`O=C1OC2(c3ccc(O)cc3Oc3cc(O)ccc32)c2ccccc21` [fluorescein]: the Papp at 120 min, 100 μg/mL worked out at 1 ± 2 nm/s.
